# Results from publication PMC8999917, “Structure–Activity Relationship of Synthetic Ginkgolic Acid Analogs for Treating Type 2 Diabetes by PTPN9 Inhibition” (International Journal of Molecular Sciences, 2022).
# Molecular target: T1, GPR120 (Homo sapiens, UniProt Q5NUL3)
# T1 construct: host or cells: CHO cells
# T1 sequence (Q5NUL3 1-361): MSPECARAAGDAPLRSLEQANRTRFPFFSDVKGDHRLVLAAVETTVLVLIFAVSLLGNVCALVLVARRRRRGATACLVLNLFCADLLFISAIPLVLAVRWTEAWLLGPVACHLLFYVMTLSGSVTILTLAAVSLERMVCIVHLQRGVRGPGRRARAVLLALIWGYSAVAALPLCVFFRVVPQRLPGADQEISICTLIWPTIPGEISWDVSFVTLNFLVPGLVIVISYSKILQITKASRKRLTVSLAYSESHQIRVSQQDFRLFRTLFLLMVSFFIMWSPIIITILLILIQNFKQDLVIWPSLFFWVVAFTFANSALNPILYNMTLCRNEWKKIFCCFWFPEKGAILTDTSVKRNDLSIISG
# Assay: GPR120 SRE-Luc reporter gene assay in CHO cells
# Type: cell-based
# Details: 50 μM
# Source text: Glucose uptake is regulated by three major mechanisms. First, through the activation of the Akt pathway, which promotes GLUT4 translocation via the activation of the signaling cascade involving the insulin receptor substrate (IRS) family and PI3 kinase through […] or G-protein-coupled receptors (GPCRs); second, through the upregulation of AMPK phosphorylation, which increases glucose uptake by inducing GLUT4 translocation to the plasma membrane; third, through the promotion of GLUT4 expression by PPARγ ligands. […] However, these compounds may induce GLUT4 expression and improve insulin sensitivity in the treated cells through their interactions with GPCR and/or PPARγ. Among GPCRs highly expressed in 3T3-L1 adipocytes and C2C12 muscle cells, GPR120 is the receptor that is most closely associated with glucose uptake. […] This was performed following a previously described method. In brief, CHO cells were plated to 96-well white plates (REF3610, Corning Life Sciences, NY, USA) in DMEM (HyClone^TM, Cytivalifescience, Seoul, Korea) supplemented with 10% FBS and 1% penicillin at a density of 1.5 × 10^4 cells/well. […] After incubation for another 24 h, luciferase activity was measured using the dual-luciferase assay system (Promega Korea, Seoul, Korea) according to the manufacturer’s instructions. […]
row,Compound,GPR120 transcriptional activity (SRE-Luc)
1,CCCCCCCCCCCCCCCOc1cccc(O)c1C(=O)O [Compound 1f],No significant change
2,CCCCCCCCCCCCCOc1cccc(O)c1C(=O)O [Compound 1e],No significant change
